# Reference: patent publication US20110092517A1, “Use of PPAR Delta Ligands for the Treatment or Prevention of Inflammation or Energy Metabolism/Production Related Diseases” (Cerenis Therapeutics S.A. & Nippon Chemiphar Co., Ltd., priority 2009, published 2011)
# Entries after “also recorded” stand apart in the source; their conditions may differ. Read-outs that look alike come from different tables or passages of the source.
# How the values were obtained:
# [1] = Liver and adipose tissue weights after 5 weeks of treatment in WD fed rats; assay type: in vivo, rat; settings: for Decrease of liver weight: non significant, pioglitazone 10, GW501516 10 mg/kg
# Protocol: (§1) At the end of the clamp procedure (9.5 hours fasting), perirenal, retroperitoneal, epididymal and inguinal fat pads and liver weights were recorded. Blood was collected from cardiac puncture and plasmas were stored at −80° C. for further assays if needed (depending on the radioactive state of samples). Liver triglyceride content was assessed (enzymatic-colorimetric method) as well as liver and adipose tissue TNF-α content (ELISA method).
# [2] = Plasma biochemistry after 17 days of treatment in WD fed rats (glycemia, insulin, HOMA-IR, adiponectin, FFA, TG); assay type: in vivo, rat; settings: for Decrease of HOMA-IR / Decrease of plasma insulin: 4 h fasted; for Decrease of HOMA-IR: pioglitazone 10, metformin 50, GW501516 10, compound I.1 10 mg/kg; for Decrease of plasma insulin: pioglitazone 10, metformin 50, GW501516 10, compound I.1 10 mg/kg +metformin 50 mg/kg; for Plasma adiponectin levels: pioglitazone 10, metformin 50, GW501516 10, compound I.1 3 and 10 mg/kg
# [3] = Euglycemic-hyperinsulinemic 2 steps clamp with 3H-glucose after 5 weeks of treatment in WD fed rats; assay type: in vivo, rat; settings: for Increase of GIR (glucose infusion rate) during the first step / Decrease of HGP (hepatic glucose production): clamp 0.2 U/kg/h insulin, pioglitazone 10, metformin 50, compound I.1 10 mg/kg +metformin 50 mg/kg; for Increase of glycolysis: metformin 50, GW501516 10, compound I.1 10 mg/kg (alone or +metformin 50 mg/kg)
# Protocol: After 4 weeks of treatment, a catheter was implanted into the femoral vein under isoflurane anaesthesia and a period of 5-6 days was respected for recovery. […] The morning of the clamp procedure, rats were treated and fasted for 6 hours prior to tracer, glucose and insulin infusions. The beginning of the clamp procedure was performed in the middle of the dark cycle.
# The euglycemic hyperinsulinemic 2 steps insulin clamp was performed using 0.2 U/kg/h and 0.8 U/kg/h insulin infusion associated with 3H-glucose infusion. We then assessed:
# During the clamp procedure, a bolus (30 μCi) of D-[3-3H]glucose was first injected followed by 4 μCi/min/kg infusion rate during all the experiment to ensure a detectable plasma D[3-3H]glucose enrichment. A bolus of insulin (100 mU) was first injected, and insulin was then infused at a rate of 0.2 U/kg/h for the first 2 hours and 0.8 U/kg/h from 120 minutes to 210 minutes.
# Throughout the infusion, glycaemia was assessed with a blood glucose meter from the tip of the tail vein when needed. Euglycemia was maintained by periodically (every 10 minutes) adjusting a variable infusion of 30% glucose. Plasma glucose concentrations and D-[3-3H]glucose specific activity were determined during stable phase in 10 μl of blood sampled from the tip of the tail vein every 20 minutes from 60 to 120 minutes during the first step and from 150 to 210 minutes during the second step.
# For glucose turnover measurements, D-[3-3H]glucose enrichments were determined from total blood after deproteinization by a Zn(OH)2 precipitate. Briefly, an aliquot of the supernatant was evaporated to dryness to determine the radioactivity corresponding to D-3-3H. In a second aliquot of the same supernatant, glucose concentration was assessed by the glucose oxidase method (Biomérieux, France).
# Calculations for glucose turnover measurements were made from parameters obtained during the infusions in steady-state condition ([…]). Briefly, the D-[3-3H]glucose specific activity was calculated by dividing the D-[3-3H]glucose enrichment by the plasma glucose concentration. The whole body glucose turnover rate was calculated by dividing the rate of D[3-3H]glucose by the D-[3-3H]glucose plasma specific activity. For each rat, the mean values were calculated and averaged with values from rats of the same group. The whole body glycolysis rate was measured by assessing the amount of tritiated water accumulated in the blood during the 3H-glucose infusion and the whole body glycogen synthesis rate was calculated by the difference between the whole body glucose turnover and the whole body glycolysis rate.
# [4] = biological target: T1, rat PPARα (Rattus norvegicus, UniProt P37230); assay: GAL4-PPAR chimera transactivation assay in CV-1 cells at 10% or 0.1% serum (Example 4); assay type: cell-based; settings: read-out: GAL4-chimera (rat) EC50 (μM) hPPARα
# T1 construct: expressed in transfected cells; host or cells: CV-1
# T1 sequence (P37230 239-466 limits assumed): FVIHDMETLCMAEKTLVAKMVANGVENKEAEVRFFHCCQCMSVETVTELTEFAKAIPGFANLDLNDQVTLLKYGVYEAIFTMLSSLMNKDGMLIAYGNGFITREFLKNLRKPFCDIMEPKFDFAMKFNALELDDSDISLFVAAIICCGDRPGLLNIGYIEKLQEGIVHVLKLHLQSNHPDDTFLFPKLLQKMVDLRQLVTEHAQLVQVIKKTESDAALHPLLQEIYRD
# [5] = tested on: TNF-α; assay: TNF-α content in liver and epididymal white adipose tissue after 5 weeks of treatment in WD fed rats (ELISA); assay type: in vivo, rat; settings: for Decrease of TNF-α levels in epididymal white adipose tissues: metformin 50, GW501516 10, compound I.1 10 mg/kg (alone or +metformin 50 mg/kg)
# Protocol: as §1
# [6] = Body weight follow-up during treatment in rats fed a high fat/medium fructose diet (WD); assay type: in vivo, rat; settings: oral once daily, pioglitazone 10, metformin 50, GW501516 10, compound I.1 10 mg/kg (alone or +metformin 50 mg/kg)
# Text: The first set of rats was undergoing an OGTT after 3 weeks of treatment (half rats/group of the clamp arm) and the second set was also undergoing an OGTT after 3 weeks of treatment (half rats/group of clamp arm) and the Histology study (3 rats/group). […] Homogenous mild obese and insulin resistant rats were allocated into the different treatment groups and western diet was continued until the end of the experiment. Given that, the 2 series started with a gap of one week Dosage regimen: Rats were treated once daily via the oral route, in the morning. The duration of the treatment was between 5 and 5.5 weeks. […], 10 mg/Kg (n=12) […] The second set of rats was weighted at 8:30 on days 17 and 21, at 1:45 pm on day 24 and at 11:10 am on day 28.
# [7] = biological target: T2, rat PPARδ (Rattus norvegicus, UniProt Q62879); assay: GAL4-PPAR chimera transactivation assay in CV-1 cells at 10% or 0.1% serum (Example 4); assay type: cell-based; settings: read-out: GAL4-chimera (rat) EC50 (μM) hPPARδ
# T2 construct: expressed in transfected cells; host or cells: CV-1
# T2 sequence (Q62879 139-440 limits assumed): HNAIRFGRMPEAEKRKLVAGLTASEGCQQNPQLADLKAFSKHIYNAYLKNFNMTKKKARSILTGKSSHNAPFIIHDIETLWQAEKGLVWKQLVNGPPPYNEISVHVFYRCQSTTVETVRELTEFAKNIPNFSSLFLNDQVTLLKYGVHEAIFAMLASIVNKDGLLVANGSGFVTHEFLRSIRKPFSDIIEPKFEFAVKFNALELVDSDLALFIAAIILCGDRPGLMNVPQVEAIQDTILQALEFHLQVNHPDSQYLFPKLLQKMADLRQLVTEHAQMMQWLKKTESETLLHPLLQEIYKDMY
# Protocol: Assays were performed in triplicate for GAL4-chimeras. Experiments were repeated at least three times.
# The EC50 were calculated as previously described.
# The transactivation activities of the compound I.1 and GW501516 are measured in rat and mouse transactivation assays at 10% and 0.1% serum (Tables 11 and 12).
# [8] = Oral glucose tolerance test after 3 weeks of treatment in WD fed rats; assay type: in vivo, rat; settings: 6 h fasted, oral glucose 2.5 g/kg after 3 weeks, pioglitazone 10, metformin 50, GW501516 10, compound I.1 10 mg/kg
# [9] = Triglycerides content in the liver after 5 weeks of treatment in WD fed rats (enzymatic-colorimetric method); assay type: in vivo, rat; settings: pioglitazone 10, GW501516 10, compound I.1 at any used dose
# Protocol: as §1
# [10] = tested on: TNF-alpha-activated HUVECs; settings: under physiological flow; cited from earlier work
SMILES,Decrease of liver weight [1] [%],Decrease of HOMA-IR [2] [%],Decrease of plasma insulin [2] [%],Increase of GIR (glucose infusion rate) during the first step ([3]; after 5 weeks) [%],Decrease of HGP (hepatic glucose production) [3] [%],Decrease of TNF-α levels in epididymal white adipose tissues [5] [%],Body weight / body weight gain during treatment [6],Plasma adiponectin levels [2],Increase of glycolysis ([3]; clamp 0.8 U/kg/h insulin) [%],other results
CCc1ccc(CCOc2ccc(CC3SC(=O)NC3=O)cc2)nc1 (centres unmarked) [pioglitazone],12,~50,39,138,47,,,,,
Cc1cc(SCc2sc(-c3ccc(C(F)(F)F)cc3)nc2C)ccc1OCC(=O)O [GW-501516],8,~25,21,,,60,slightly decreased body weight the first week of treatment but not in a significant manner; also recorded: significant after 4 weeks of treatment,prevented the decrease,21,"EC50 ([4]; 0.1% serum): 1.96 ± 0.7 µM; EC50 ([4]; 10% serum): > 10 µM; TNF-α content in the liver ([5]; compound I.1 10 mg/kg +metformin 50 mg/kg, GW501516 10 mg/kg, other groups): tended to decreased; Decrease of TNF-α level in the liver ([5]; tendency, compound I.1 10 mg/kg +metformin 50 mg/kg, GW501516 10 mg/kg): 12%; EC50 ([7]; 0.1% serum): 0.072 ± 0.025 µM; EC50 ([7]; 10% serum): 0.427 ± 0.29 µM; Glucose tolerance (OGTT, AUC, glycemia variation) [8]: strong tendency to improved glucose tolerance; Triglycerides content in the liver [9]: tended to decrease; also recorded: did not significantly decrease; Rolling and adhesion of hPMNs on TNF-alpha-activated HUVECs [10]: inhibited markedly; Increase of plasma TG ([2]; GW501516 10 mg/kg, compound I.1 10 mg/kg +metformin 50 mg/kg): 84%"
CN(C)C(=N)N=C(N)N [metformin],,~50,44,112,40,25,decreased,did not prevent a decrease,20,"Body weight / body weight gain during treatment ([6]; listed as Metformin): significantly decreased body weight after 2 weeks of treatment; Decrease of perirenal white adipose tissue ([1]; tendency, metformin 50 mg/kg alone or with compound I.1 10 mg/kg): 27%; Insulin resistance / insulin sensitizing effect (overall) ([3]; WD fed rats, after 5 weeks, compound I.1 dose not specified (3 and 10 mg/kg groups), pioglitazone 10, metformin 50 mg/kg): insulin sensitizing effects; Whole body glucose oxidation ([3]; WD fed rats, clamp after 5 weeks, metformin 50 mg/kg, compound I.1 dose not specified, alone or associated): tended to increase; GIR during the second step ([3]; clamp 0.8 U/kg/h insulin, after 5 weeks, pioglitazone 10, metformin 50 mg/kg, other groups): tended to increase GIR (not significantly)"
